According to patent US8889876B2, “Histone deacetylase inhibitors and uses thereof” (Jiangsu Hengyi Pharmaceutical Co., Ltd., priority 2008, dated 2014):
Values after ≈ are worked out from the molar mass of the structure shown.

What was measured:
[1] = tested on: A549 (human lung adenocarcinoma cells); experiment: MTT cytotoxicity to tumor cell strains, A549; format: cell-based; settings: Homo sapiens, read-out: Cell activity (IC50, μg/ml) A549
Procedure: (§1) The cytotoxicity of samples to tumor cell strains is determined through MTT.

[2] = tested on: histone deacetylase; experiment: in vitro inhibition activity on histone deacetylase (rat liver homogenate, MAL fluorescent substrate); format: biochemical, rats; settings: n = 4, 37° C., 16 hours
Procedure: A 96-well plate (black) for determining […] is made by Costar Company of U.S. The histone deacetylase is obtained by homogenization of liver of rats. The histone deacetylase reacts with small molecular fluorescent substrate MAL such that the substrate MAL is deacetylated to become ML.
The compound to be detected is dissolved with 200 μL of DMSO. The stock solution of the compound to be detected is diluted with PBS to a concentration of the working solution. The histone deacetylase, the MAL fluorescent substrate and the compound to be detected are mixed in a water bath at 37° C. and reacted 16 hours. The final concentration of the compound to be detected is: MS275 and its similar compound: 10, 100 μmol/.
The reaction solution is extracted with ethyl acetate. The extract is pumped in vacuum and thereto added 110 μL of methanol (40%). Taking 50 μL/well to a 96-well plate and making a fluorescent detection at 325/390 nm.
The negative control wherein histone deacetylase is not added to the reaction is 100% inhibition. The control that only contains histone deacetylase without any inhibitor is the background (0% inhibition). The inhibition rate of the sample to be detected=(the detected fluorescent value−the background)/(the fluorescent value of the negative control−background)×100%
The inhibition rate and the standard deviation in the results are the average inhibition percentage and the standard deviation of each parallel well in each dosage group.

[3] = tested on: K562: human chronic myeloid leukemia cell strain; experiment: MTT cytotoxicity to tumor cell strains, K562; format: cell-based; settings: Homo sapiens, read-out: Cell activity (IC50, μg/ml) K562
Procedure: as §1

[4] = tested on: Hut 78 (T-cell Leukemia cell); experiment: MTT cytotoxicity to tumor cell strains, Hut 78; format: cell-based; settings: Homo sapiens, HuT78; Hut 78, MTT; read-out: Cell activity (IC50, μg/ml) Hut 78
Procedure: as §1

[5] = tested on: Hep3B2.1-7 human liver cancer cells; experiment: CCK-8 proliferation inhibition, Hep3B2.1-7; format: cell-based; settings: Homo sapiens, Hep3B, CCK-8 method; for inhibition at 10 µM: compound concentration 10 μM; for inhibition at 100 µM: compound concentration 100 μM
Summary of the method: (§2)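 Inhibition rates were obtained by CCK-8 assay after treating cells with each compound at 100 μM or 10 μM.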

[6] = tested on: Jurkat E6-1 human T-cell lymphoma; experiment: CCK-8 proliferation inhibition, Jurkat E6-1; format: cell-based; settings: Homo sapiens; for inhibition at 10 µM: Jurkat E6.1, 10 μM; for inhibition at 100 µM: Jurkat E6.1, 100 μM
Summary of the method: as §2

[7] = tested on: K562 human chronic myeloid leukemia cells; experiment: CCK-8 proliferation inhibition, K562; format: cell-based; settings: Homo sapiens; for inhibition at 10 µM: K562, 10 μM; for inhibition at 100 µM: K562, 100 μM
Summary of the method: as §2

[8] = tested on: Colo320 human rectal cancer cells; experiment: CCK-8 proliferation inhibition, Colo320; format: cell-based; settings: Homo sapiens, COLO 320, CCK-8 method; for inhibition at 10 µM: compound concentration 10 μM; for inhibition at 100 µM: compound concentration 100 μM
Summary of the method: as §2

[9] = tested on: MDA-MB-435s human breast cancer cells; experiment: CCK-8 proliferation inhibition, MDA-MB-435s; format: cell-based; settings: Homo sapiens, MDA-MB-435S, CCK-8 method; for inhibition at 10 µM: compound concentration 10 μM; for inhibition at 100 µM: compound concentration 100 μM
Summary of the method: as §2

[10] = tested on: A549 human lung cancer cells; experiment: CCK-8 proliferation inhibition, A549; format: cell-based; settings: Homo sapiens, A549, CCK-8 method; for inhibition at 10 µM: compound concentration 10 μM; for inhibition at 100 µM: compound concentration 100 μM
Summary of the method: as §2

[11] = tested on: Hut78 T-cell Leukemia cell; experiment: CCK-8 proliferation inhibition, Hut78; format: cell-based; settings: Homo sapiens, read-out: Hut-78 (inhibition %); for inhibition at 10 µM: HuT78, 10 μM; for inhibition at 100 µM: HuT78, 100 μM
Summary of the method: as §2

[12] = tested on: PANC-1 human pancreatic cancer cells; experiment: CCK-8 proliferation inhibition, PANC-1; format: cell-based; settings: Homo sapiens; for inhibition at 10 µM: PANC-1, 10 μM; for inhibition at 100 µM: PANC-1, 100 μM
Summary of the method: as §2

[13] = tested on: PC-3 human prostate cancer; experiment: CCK-8 proliferation inhibition, PC-3; format: cell-based; settings: Homo sapiens, CCK-8 method; for inhibition at 10 µM: compound concentration 10 μM; for inhibition at 100 µM: compound concentration 100 μM
Summary of the method: as §2

inhibition rate % average number ([2]; dosage 10 μmol/L) [%] | inhibition rate % average number ([2]; dosage 100 μmol/L) [%] | SMILES | IC50 [1] [µg/mL] | IC50 [3] [µg/mL] | IC50 [4] [µg/mL] | inhibition at 10 µM [5] [%] | inhibition at 100 µM [5] [%] | inhibition at 10 µM [6] [%] | inhibition at 100 µM [6] [%] | inhibition at 10 µM [7] [%] | inhibition at 100 µM [7] [%] | inhibition at 10 µM [8] [%] | inhibition at 100 µM [8] [%] | inhibition at 10 µM [9] [%] | inhibition at 100 µM [9] [%] | inhibition at 10 µM [10] [%] | inhibition at 100 µM [10] [%] | inhibition at 10 µM [11] [%] | inhibition at 100 µM [11] [%] | inhibition at 10 µM [12] [%] | also measured
0.479 | 0.293 | Nc1ccccc1CNC(=O)c1ccc(CNC(=O)OCc2cccnc2)cc1 [V-1, N-(2-aminobenzyl)-4-[(3-pyridylmethoxyacyl)aminomethyl]benzamide] | > 100 | > 100 | 12.5 (≈ 32 µM) |  |  |  |  |  |  |  |  |  |  |  |  |  |  |  | 
−0.124 | 0.080 | O=C(NCc1ccc(C(=O)Nc2ccccn2)cc1)OCc1cccnc1 [V-2, N-(2-pyridyl)-4-[(3-pyridylmethoxyacyl)aminomethyl]benzamide] | > 100 | > 100 | 76.2 (≈ 210 µM) |  |  |  |  |  |  |  |  |  |  |  |  |  |  |  | 
0.170 | 0.481 | O=C(NCc1ccc(C(=O)Nc2cccnc2)cc1)OCc1cccnc1 [V-3, N-(3-pyridyl)-4-[(3-pyridylmethoxyacyl)aminomethyl]benzamide] | > 100 | > 100 | 38.8 (≈ 107 µM) |  |  |  |  |  |  |  |  |  |  |  |  |  |  |  | 
 |  | COc1cc(/C=C/C(=O)NCc2ccc(C(=O)Nc3cccnc3N)cc2)cc(OC)c1OC [V-34, N-(2-amino-3-pyridyl)-4-[(3,4,5-trimethoxycinnamoyl)aminomethyl]benzamide] | > 100 | > 100 | 68.5 (≈ 148 µM) | 1 | 28.1 | 4.7 | 52.7 | 12.8 | 61.2 | 7.3 | 5.9 | 21.5 | 42.9 | -7.4 | 6.2 | 9.9 | 53.1 | 9.2 | inhibition at 100 µM [12]: 4%; inhibition at 10 µM [13]: 7%; inhibition at 100 µM [13]: 40.2%
 |  | Nc1ncccc1NC(=O)c1ccc(CNC(=O)/C=C/c2ccc([N+](=O)[O-])cc2)cc1 [V-36, N-(2-amino-3-pyridyl)-4-[(4-nitrocinnamoyl)aminomethyl]benzamide] | > 100 | > 100 | 17.1 (≈ 40.9 µM) | 11.3 | 40.6 | 12.5 | 83.3 | 34.1 | 64.8 | 7.9 | 14.1 | 30.8 | 61.2 | 2.4 | 12 | 8.1 | 60 | 20.8 | inhibition at 100 µM [12]: 39.5%; inhibition at 10 µM [13]: -9.4%; inhibition at 100 µM [13]: 22.1%
